Patent US9587220B2, “Method for inducing cardiac differentiation of pluripotent stem cell” (Kyoto University, priority 2012, dated 2017)
Entries after “also recorded” stand apart in the source; their conditions may differ.

Key:
[1] = system: human αMHC promoter-driven EGFP transgenic monkey ESCs; experiment: αMHC promoter-driven GFP expression, cardiac differentiation of transgenic monkey ESCs (HCA); type: cell-based; conditions: for intensity of the GFP signal driven by αMHC promoter: comparison of chemical and proteinaceous WNT inhibitors, FIG. 3b,c; for cardiac differentiation when BIO was added: monkey ESCs and hiPSCs, with 5 μM BIO
From the text: To generate human αMHC promoter-driven EGFP-expressing monkey ESCs, the 918 bp upstream from the transcriptional starting site and the third exon just before the open reading frame were amplified from genomic DNAs of KhES-1 hESCs by PCR, using the following primer sets —forward primer, 5′- […]-3′ (SEQ ID No: 37); reverse primer, 5′- (including a SalI linker) 22 […]-3′ (SEQ ID No: 38)—and then ligated into pGEM-T Easy Vector (Promega). The HindIII/SalI fragment from the cloning vector was connected with pEGFP-1 (Clontech). The linearized αMHC-EFGP vector was introduced into CMK6.4 monkey ESCs by electroporation. Transgenic ESC clones were selectively grown with G418 (Sigma-Aldrich). The expression of EGEP was confirmed in beating colonies.
The confluent (4-5 d after passage) αMHC-GFP transgenic monkey ESCs were dissociated enzymatically by CTK solution (Non-patent literature 1), and the ESC clumps (40-100 μm in diameter) were obtained using 40 and 100 μm Cell Strainers (BD Biosciences). The ESC clumps (approximately 5.0×10^3 cells well^−1) were transferred onto 96-well plates (Greiner Bio-One, 96-well black plate, Cat. No. 655090) and incubated in cardiac differentiation medium as described in (4) below. During Days 6-14 of cardiac differentiation, 9600 compounds from the chemical library (dissolved in DMSO) were screened using 96-well plates. Sixteen and 80 wells were used for the control (0.1% DMSO) and chemical compounds (1 per well), respectively. Final concentration of the each compound was approximately 1-5 μM. Medium containing small molecules was changed every 4 d. On Day 14, GFP fluorescence of ESCs was measured by whole-plate scanning, using the Metamorph imaging system (Molecular Device). Metamorph software was used to analyze the GFP fluorescence data and calculate Fluorescence Area, Total Fluorescence Intensity, Average Fluorescence Intensity, and number of GFP-positive colonies for each well. Hit compounds were determined by the following criteria: Average Fluorescence Intensity of a well with the compound was >6 SD greater than Average Fluorescence Intensity of the control (mean of 16 wells), and Total Fluorescence Intensity for the compound was >0 SD greater than the control; or Total Fluorescence Intensity of the compound was >4 SD greater than the control, and Average Fluorescence Intensity of the compound was >0 SD greater than the control. One hundred and twenty compounds passed these criteria and were retested using 8 wells for each compound.
Confluent hESCs and hiPSCs were gently detached with CTK solution and transferred into Petri dishes (BD Biosciences) with Primate ES Cell Culture Medium (ReproCELL, Japan). Cells were held in suspension culture for 8-24 h to form aggregates. The sizes of hPSC aggregates (0.3-1 mm in diameter) are important for efficient differentiation. Following suspension culture, cell aggregates were attached to culture dishes (3-10×10^5 cells cm^−2) in cardiac differentiation medium: IMDM (Sigma), containing 20% FBS (Gibco), 1% MEM non-essential amino acid solution (Sigma), 1% Penicillin-Streptomycin (Gibco), 2 mM L-glutamine (Sigma), 0.001% 2-Mercaptoethanol (Gibco), and 0.005N NaOH, with 10 ng ml^−1 BMP4 (R&D Systems). The medium was changed to cardiac differentiation medium with 10 μM KY02111 and/or other WNT inhibitors added on Day 3 (hiPSC lines) or Day 4 (human or monkey ESC lines); XAV939 (Wako, Japan), IWP-2 (Santa Cruz Biotechnology), IWR-1 (Merck4Bioscience), IGFBP4 (R&D Systems), Dkk1 (R&D Systems) and the mixture of bFGF (R&D Systems), BMP4 (R&D Systems), VEGF (R&D Systems), DKK1 (R&D Systems), and Activin A (R&D Systems) (Non-patent literature 16). Medium was changed every 2-3 d. KY02111 and other WNT inhibitors were added until Day 9 for hiPSC lines and the monkey ESC line, or Day 14 for hESC lines. […]

[2] = system: TCF promoter activity (canonical WNT signaling) in IMR90-1 hiPSCs; experiment: TOPflash TCF reporter-luciferase assay in hiPSCs; type: cell-based, human; conditions: 10 μM, with 60 ng/ml Wnt3a or 3 μM BIO
Procedure: For the TCF reporter assay, IMR90-1 hiPSCs were cultured in the serum-containing differentiation culture, as described above, and transfected with TOPFlash plasmid (Millipore 21-170) and pRL-SV40 plasmid (Renilla luciferase transfection control, Promega E1980) on Day 2, using FuGENE HD transfection Reagenet (Promega E2311). After 24 h, 10 μM KY02111, 10 μM XAV939, or 10 μM IWP-2 was added to the medium, along with either 60 ng ml^−1 of mouse Wnt3a (Wako 232-02421) or 3 μM BIO. After 48 h of transfection (Day 4), luciferase activities were measured using a Dual-Luciferase Reporter 1000 Assay System kit (Promega E1980) and a 2030 ARVO X3 plate reader (PerkinElmer). Luciferase activities were normalized to the luminescence of the transfection control, Rennila luciferase, according to the kit protocol. For experiments using HEK293 cells, the cells were cultured in 10% FBS DMEM medium, and transfected with TOPflash and pRL-SV40 plasmid, using FuGENE HD. After 24 h, the transfected cells were seeded onto 96-well plates (10,000 cells well^−1) in medium containing 10 μM KY02111, 10 μM XAV939, or 10 μM IWP-2, along with 3 μM BIO or 60 ng ml^−1 mouse Wnt3a. Luciferase activities were measured 48 h after transfection by the procedure described above.

[3] = system: KY02111-induced cardiomyocytes (KY-CMs); experiment: qPCR of cardiac marker and ion channel genes in KY02111-induced cardiomyocytes; type: cell-based, human; conditions: Days 15 and 30
Procedure: Total RNA was isolated with an RNeasy Mini Kit (QIAGEN). Genomic DNA was completely digested with DNase I (Invitrogen). Total RNA (0.5 μg) was subjected to cDNA synthesis using the SuperScript III Reverse Transcriptase (Invitrogen). qRT-PCR was performed in triplicate, using SYBER GREEN PCR Master Mix on a 7500 Real Time PCR System (Applied Biosystems). The cycling conditions were as follows: 10 min at 95° C.; 40 cycles, each consisting of 15 s at 95° C.; 1 min at 60° C. Total RNA from human adult heart tissue (BioChain) was used to evaluate the expression levels of cardiac marker genes for cardiomyocytes derived from hPSCs. All values were normalized with respect to GAPDH expression level and expressed relative to the corresponding values in human adult hearts (100%).

Cc1ccc2nc(NC(=O)CSc3nc4c(c(=O)n3-c3ccccc3)SCC4)sc2c1 [IWP-2, reference compound]
intensity of the GFP signal driven by αMHC promoter [1]: increased
cardiac differentiation when BIO was added [1]: completely inhibited
TCF promoter (luciferase) activity elevated by Wnt3a or BIO [2]: didn't inhibit

Oc1nc(-c2ccc(C(F)(F)F)cc2)nc2c1CSCC2 [XAV939, reference compound]
intensity of the GFP signal driven by αMHC promoter [1]: increased
cardiac differentiation when BIO was added [1]: completely inhibited
TCF promoter (luciferase) activity elevated by Wnt3a or BIO [2]: clearly reduced luciferase activities; also recorded: inhibited

COc1ccc(CCC(=O)Nc2nc3ccc(Cl)cc3s2)cc1OC [KY02111, 2-(3-(3,4-dimethoxyphenyl)propanamide)-6-chlorobenzothiazole]
increase of differentiation compared to the control (GFP signal) ([1]; 10 μM, comparison of WNT inhibitors, FIG. 3b): about 80 fold
GFP expression level induced by N11474 and related compounds (structure-activity) ([1]; DMSO=100%): induced the highest levels
promotion of cardiac differentiation relative to DMSO control (GFP increase ratio) ([1]; FIG. 1d): about 73 times
promotion of cardiac differentiation relative to N11474 ([1]; FIG. 1d): 7.4 times
intensity of the GFP signal driven by αMHC promoter [1]: most effective
cardiac differentiation when BIO was added [1]: not affected by BIO
TCF promoter (luciferase) activity elevated by Wnt3a or BIO [2]: clearly reduced luciferase activities; also recorded: inhibited
expression of ion channel genes in KY-CMs relative to adult heart tissue [3]: equivalent to those of adult heart tissue
